Legend:
[1] = test system: Na+/K+-ATPase (Adenosine 5′-Triphosphatase isolated from porcine cerebral cortex); test: Na+/K+-ATPase inhibitory activity, colorimetric Adenosine 5'-Triphosphatase Enzymatic Assay; assay type: biochemical; conditions: for IC50: read-out: Na+K+ ATPase inhibitory activity IC50
Protocol: The inhibitory effect of a compound of the invention on ATPase activity was assessed in vitro using the colorimetric Adenosine 5′-Triphosphatase Enzymatic Assay of Sigma (St. Louis, Mo.) according to the manufacturer's instructions. This assay utilizes Adenosine 5′-Triphosphatase isolated from porcine cerebral cortex. Each reaction was performed in a final volume of 250 μl using 0.5 units/ml enzyme in the presence of different inhibitors. […] IC50 values were determined using the Origin® program software (OriginLab, Northampton, Mass.).

[2] = test system: A549 (Lung); test: SRB assay, A549; assay type: cell-based, human; conditions: for TGI / GI50: A549, SRB, 48 h; for CC50 / GI50: Homo sapiens; for CC50: A549, 48 h, read-out: LC50
Protocol: (§1) SRB assays were performed according to standard National Cancer Institute Guidelines. Briefly, human tumor cells from different cancer panels were seeded into 96 well plates in 100 μL (plating densities ranging from 5-40,000 cells/well depending on the doubling time of individual cell lines) in serum-containing media for twenty-four hours prior to the addition of the compounds to be assayed. After 24 hours, one plate of each cell line was fixed in situ with trichloroacetic acid (TCA). The fixed slides were used to determine the cell population for each cell line at the time of drug addition (Tz). Each compound to be tested was solubilized in DMSO and the desired concentration was then added to the medium and diluted serially 1:10 to provide a total of five or ten drug concentrations plus control (in a final volume of 200 μL). The starting dose before any dilution was 100 uM for all compounds.
(§2) Following drug addition, each culture was incubated for forty-eight hours. The assay was terminated with the addition of cold TCA. The supernatant was discarded, and the plates were washed with tap water and air dried. Sulforhodamine B (SRB) solution was then added to each well. After staining, the bound stain was solubilized and the absorbance was read on an automated plate reader at a wavelength of 515 nm.
(§3) Using the absorbance measurements [time zero, (Tz), control growth, (C), and test growth in the presence of drug at the ten concentration levels (Ti)], the percentage growth was calculated at each of the drug concentrations levels. Percentage growth inhibition was calculated as:
(§4) [(Ti−Tz)/(C−Tz)]×100 for concentrations for which Ti>/=Tz
(§5) [(Ti−Tz)/Tz]×100 for concentrations for which Ti<Tz.
(§6) Three dose response parameters were calculated for each experimental agent. Growth inhibition of 50% (GI50) was calculated from [(Ti−Tz)/(C−Tz)]×100=50, which was the drug concentration resulting in a 50% reduction in the net protein increase (as measured by SRB staining) in control cells during the drug. The drug concentration resulting in total growth inhibition (TGI) was calculated from Ti=Tz. The LC50 (concentration of drug resulting in a 50% reduction in the measured protein at the end of the drug treatment as compared to that at the beginning) indicating a net loss of cells following treatment was calculated from [(Ti−Tz)/Tz]×100=−50.
(§7) Values were calculated for each of these three parameters when the level of activity was reached; however, if the effect was not reached or was exceeded, the value for that parameter was expressed as greater or less than the maximum or minimum concentration tested.
(§8) Table 4 summarizes results characterizing the effects of compound Nos. 120, 12, 61, 1, and 56 on GI50, which measures the cell growth inhibitory power of the compound, TGI, which measures cytostatic effect (TGI) and LC50, which signifies cytotoxic effect. Each of these parameters in Table 4 was calculated in a sulforhodamine B (SRB) assay, which provides a colorimetric measure of a compound's anti-cancer activity. SRB assays were performed with compounds of the invention in 22 different cell lines (shaded in light gray in Table 4), which represent nine different tumor panels (lung, melanoma, ovary, prostate, CNS, breast, pancreas colon and renal). Ouabain and digoxin were used as controls. Paclitaxel was added as a non-Na^+K^+-ATPase inhibitor control.

[3] = test system: ERVK (Lung); test: SRB assay, ERVK; assay type: cell-based, human; conditions: 48 h; for TGI / GI50: ERVK, SRB; for CC50 / GI50: Homo sapiens; for CC50: read-out: LC50
Protocol: as §1, §2, §3, §4, §5, §6, §7, §8

[4] = test system: SKMEL28 (Melanoma); test: SRB assay, SKMEL28; assay type: cell-based, human; conditions: for CC50 / GI50: Homo sapiens; for CC50: SK-MEL-28, 48 h, read-out: LC50; for GI50: SK-MEL-28; for GI50 / TGI: SKMEL28, SRB, 48 h
Protocol: as §1, §2, §3, §4, §5, §6, §7, §8

[5] = test system: MB435 (Melanoma); test: SRB assay, MB435; assay type: cell-based, human; conditions: 48 h; for CC50 / GI50: Homo sapiens; for CC50: read-out: LC50; for GI50 / TGI: MB435, SRB
Protocol: as §1, §2, §3, §4, §5, §6, §7, §8

[6] = test system: OVCAR5 (Ovary); test: SRB assay, OVCAR5; assay type: cell-based, human; conditions: for CC50 / GI50: Homo sapiens; for CC50: OVCAR-5, 48 h, read-out: LC50; for GI50: OVCAR-5; for GI50 / TGI: OVCAR5, SRB, 48 h
Protocol: as §1, §2, §3, §4, §5, §6, §7, §8

[7] = test system: OVCAR3 (Ovary); test: SRB assay, OVCAR3; assay type: cell-based, human; conditions: for CC50 / GI50: Homo sapiens; for CC50: OVCAR-3, 48 h, read-out: LC50; for GI50: OVCAR-3; for GI50 / TGI: OVCAR3, SRB, 48 h
Protocol: as §1, §2, §3, §4, §5, §6, §7, §8

[8] = test system: ADRRES (Ovary); test: SRB assay, ADRRES (multidrug resistant NCI-ADR-RES); assay type: cell-based, human; conditions: for TGI / GI50: ADRRES; for TGI / CC50 / GI50: 48 h; for CC50 / GI50: Homo sapiens, NCI/ADR-RES; for CC50: read-out: LC50; for anti-tumor action in multidrug resistant cell line NCI-ADR-RES: cells express high levels of MDR1 and P-glycoprotein
Protocol: NCI-ADR-RES cells have been classified as ovarian cancer cells by the National Cancer Institute.
as §1, §2, §3, §4, §5, §6, §7, §8
Table 4 also presents results with Compound Nos. 120, 12, 61, 1, and 56 in a well characterized drug resistant cell line, NCI-ADR-RES, that expresses high levels of MDR1 and P-glycoprotein.

[9] = test system: DU145 (Prostate); test: SRB assay, DU145; assay type: cell-based, human; conditions: for TGI / GI50: DU145, SRB, 48 h; for CC50 / GI50: Homo sapiens; for CC50: DU-145, 48 h, read-out: LC50; for GI50: DU-145
Protocol: as §1, §2, §3, §4, §5, §6, §7, §8

[10] = test system: PCJ (Prostate); test: SRB assay, PCJ; assay type: cell-based; conditions: Homo sapiens, 48 h; for CC50: read-out: LC50; for GI50 / IC (TGI): PCJ, SRB
Protocol: as §1, §2, §3, §4, §5, §6, §7, §8

[11] = test system: SF268 (CNS); test: SRB assay, SF268; assay type: cell-based; conditions: Homo sapiens; for CC50: SF-268, 48 h, read-out: LC50; for GI50 / IC (TGI): SF-268, SF268, SRB, 48 h; for GI50: read-out: GI50; for IC (TGI): read-out: TGI
Protocol: as §1, §2, §3, §4, §5, §6, §7, §8

[12] = test system: HCT116 (Colon); test: SRB assay, HCT116; assay type: cell-based; conditions: Homo sapiens; for CC50: HCT-116, 48 h, read-out: LC50; for GI50 / IC (TGI): HCT-116, HCT116, SRB, 48 h
Protocol: as §1, §2, §3, §4, §5, §6, §7, §8

[13] = test system: CAKJ1 (Renal); test: SRB assay, CAKJ1; assay type: cell-based, human; conditions: 48 h; for TGI / GI50: CAKJ1, SRB; for CC50 / GI50: Homo sapiens; for CC50: read-out: LC50
Protocol: as §1, §2, §3, §4, §5, §6, §7, §8

Row | SMILES | TGI [2] [µM] | CC50 [2] [µM] | GI50 [2] [µM] | CC50 [4] [µM] | GI50 [4] [µM] | TGI [4] [µM] | TGI ([8]; SRB) [µM] | CC50 [8] [µM] | GI50 ([8]; SRB) [µM] | TGI [9] [µM] | CC50 [9] [µM] | GI50 [9] [µM] | CC50 [10] [µM] | GI50 [10] [µM] | IC (TGI) [10] [µM] | CC50 [11] [µM] | GI50 [11] [µM] | IC (TGI) [11] [µM] | CC50 [12] [µM] | GI50 [12] [µM] | also measured
1 | C[C@]12CCC(=NOCCN)CC1CCC1C2CC[C@]2(C)C(=O)CCC12 (stereo partly drawn) [Compound 1, (10S,13S)-3-(2-aminoethoxyimino)-10,13-dimethyltetradecahydro-1H-cyclopenta[a]phenanthren-17(2H)-one] | 0.5825 | 0.85 | 0.315 | 7.54 | 0.517 | 0.9284 | 0.6479 | 0.944 | 0.321 | 0.5882 | 0.844 | 0.332 | 0.897 | 0.253 | 0.575 | 0.908 | 0.385 | 0.647 | 8.11 | 0.364 | Na+K+ ATPase inhibitory activity (in words) [1]: very potent Na+K+ ATPase inhibitors; IC50 [1]: 0.124 µM; TGI [3]: 0.6406 µM; CC50 [3]: 0.943 µM; GI50 [3]: 0.338 µM; CC50 [5]: 6.38 µM; GI50 [5]: 0.599 µM; TGI [5]: 1.3995 µM; CC50 [6]: 7.33 µM; GI50 [6]: 0.834 µM; TGI [6]: 3.7630 µM; CC50 [7]: 0.984 µM; GI50 [7]: 0.291 µM; TGI [7]: 0.6375 µM; anti-tumor action in multidrug resistant cell line NCI-ADR-RES ([8]; SRB): potent anti-tumor action; IC (TGI) [12]: 1.31 µM; TGI [13]: 0.6430 µM; CC50 [13]: 0.948 µM; GI50 [13]: 0.338 µM
2 | C[C@]12CCC(=NOCCN)C=C1CCC1C2CC[C@]2(C)C(=O)CCC12 (stereo partly drawn) [Compound 12, (10R,13S)-3-(2-aminoethoxyimino)-10,13-dimethyl-2,3,7,8,9,10,11,12,13,14,15,16-dodecahydro-1H-cyclopenta[a]phenanthren-17(6H)-one] | 6.90 | 9.73 | 4.08 | 85.6 | 8.39 | 40.16 | 6.58 | 10.1 | 3.08 | 5.75 | 8.45 | 3.04 | 8.52 | 3.54 | 6.03 | 8.51 | 2.84 | 5.67 | 10.7 | 4.06 | Na+K+ ATPase inhibitory activity (in words) [1]: strong Na+K+ ATPase inhibitory activities; IC50 [1]: 0.375 µM; TGI [3]: 5.13 µM; CC50 [3]: 8.8 µM; GI50 [3]: 1.45 µM; CC50 [5]: 75.8 µM; GI50 [5]: 5.45 µM; TGI [5]: 10.24 µM; CC50 [6]: 63.6 µM; GI50 [6]: 5.3 µM; TGI [6]: 9.02 µM; CC50 [7]: 88.8 µM; GI50 [7]: 3.01 µM; TGI [7]: 28.79 µM; GI50 in NCI-ADR-RES cells compared to non-resistant MCF-7 cells ([8]; SRB): the same GI50 value; anti-tumor action in multidrug resistant cell line NCI-ADR-RES ([8]; SRB): potent anti-tumor action; IC (TGI) [12]: 7.38 µM; TGI [13]: 6.56 µM; CC50 [13]: 9.44 µM; GI50 [13]: 3.69 µM
3 | C[C@]12CCC(=NOC3CCNC3)CC1CCC1C2CC[C@]2(C)C(=O)CCC12 (stereo partly drawn) [Compound 56, (10S,13S)-10,13-dimethyl-3-(pyrrolidin-3-yloxyimino)tetradecahydro-1H-cyclopenta[a]phenanthren-17(2H)-one] | 0.0040 | 0.0082 | < 0.001 | 3.74 | 0.0409 | 0.2253 | 0.0491 | 0.0908 | 0.0093 | 0.0220 | 0.0706 | 0.005 | 0.936 | 0.0332 | 0.387 | 0.81 | 0.0567 | 0.349 | 0.762 | 0.0058 | Na+K+ ATPase inhibitory activity (in words) [1]: very potent Na+K+ ATPase inhibitors; IC50 [1]: 0.101 µM; TGI [3]: 0.0628 µM; CC50 [3]: 0.288 µM; GI50 [3]: 0.0179 µM; CC50 [5]: 0.668 µM; GI50 [5]: 0.0485 µM; TGI [5]: 0.2182 µM; CC50 [6]: 0.741 µM; GI50 [6]: 0.0749 µM; TGI [6]: 0.3411 µM; CC50 [7]: 0.17 µM; GI50 [7]: 0.0029 µM; TGI [7]: 0.0114 µM; anti-tumor action in multidrug resistant cell line NCI-ADR-RES ([8]; SRB): potent anti-tumor action; IC (TGI) [12]: 0.0705 µM; TGI [13]: 0.0265 µM; CC50 [13]: 0.172 µM; GI50 [13]: < 0.001 µM
4 | CC(=O)O[C@H]1C(=O)[C@@]2(C)[C@H]([C@H](OC(=O)c3ccccc3)[C@]3(O)C[C@H](OC(=O)[C@H](O)[C@@H](NC(=O)c4ccccc4)c4ccccc4)C(C)=C1C3(C)C)[C@]1(OC(C)=O)CO[C@@H]1C[C@@H]2O [Paclitaxel, reference compound] | 6.1384 | 15.3 | < 0.001 | > 10 | 2.3 | >10 | 5.8034 | 10.6 | 1.05 | 0.0086 | 0.143 | < 0.001 | > 10 | < 0.1 | > 10 | > 10 | < 0.1 | 1.93 | > 10 | < 0.1 | IC (TGI) [12]: 2.24 µM; TGI [13]: 4.969 µM; CC50 [13]: 11.6 µM; GI50 [13]: < 0.001 µM

— patent US20120238488A1, “COMPOUNDS AND METHODS FOR TREATING NEOPLASIA” (priority 2009, published 2012)
